{"source": "patent US6562363B1", "about": "“Bioadhesive compositions and methods for topical administration of active agents” (Noven Pharmaceuticals, Inc., priority 1997, dated 2003)", "origin": "cited, not measured here", "key": {"[1]": {"details": "application to skin or mucous membranes"}, "[2]": {"details": "application to skin or mucous membranes; for Duration of Effect: duration of anesthetic effect; for Peak Effect: time to peak anesthetic effect"}}, "data": [{"compound": "COC(=O)[C@H]1[C@@H](OC(=O)c2ccccc2)C[C@@H]2CC[C@H]1N2C", "note": "[Cocaine]", "values": [{"measurement": "Maximum Adult Dose", "setting": "[1]", "result": 50, "unit": "mg"}]}, {"compound": "CCCCOc1ccc(C(=O)CCN2CCCCC2)cc1", "note": "[Dyclonine]", "values": [{"measurement": "Duration of Effect", "setting": "[2]", "result": "<60", "unit": "min"}, {"measurement": "Peak Effect", "setting": "[2]", "result": "<10", "unit": "min"}, {"measurement": "Maximum Adult Dose", "setting": "[1]", "result": 100, "unit": "mg"}]}, {"compound": "CCN(CC)CC(=O)Nc1c(C)cccc1C", "note": "[Lidocaine]", "values": [{"measurement": "Maximum Adult Dose", "setting": "[1]", "result": 750, "unit": "mg"}]}, {"compound": "CCCCOc1cc(C(=O)NCCN(CC)CC)c2ccccc2n1", "note": "[Dibucaine]", "values": [{"measurement": "Duration of Effect", "setting": "[2]", "result": "120 to 240", "unit": "min"}, {"measurement": "Peak Effect", "setting": "[2]", "result": "<15", "unit": "min"}, {"measurement": "Maximum Adult Dose", "setting": "[1]", "result": 25, "unit": "mg"}]}, {"compound": "CCOC(=O)c1ccc(N)cc1", "note": "[Benzocaine]", "values": [{"measurement": "Duration of Effect", "setting": "[2]", "result": "30 to 60", "unit": "min"}, {"measurement": "Peak Effect", "setting": "[2]", "result": 1, "unit": "min"}, {"measurement": "Maximum Adult Dose", "setting": "[1]", "result": 5000, "unit": "mg"}]}, {"compound": "CCCCNc1ccc(C(=O)OCCN(C)C)cc1", "note": "[Tetracaine]", "values": [{"measurement": "Duration of Effect", "setting": "[2]", "result": "30 to 60", "unit": "min"}, {"measurement": "Peak Effect", "setting": "[2]", "result": "3 to 8", "unit": "min"}, {"measurement": "Maximum Adult Dose", "setting": "[1]", "result": 50, "unit": "mg"}]}]}
